Broadly, the CC50 is the concentration that lowers cell viability or growth by half.

From patent US5028598A, “Oxetanocin derivatives and their salts as well as use thereof” (Nippon Kayaku Kabushiki Kaisha, priority 1989, dated 1991) come the findings set out here.

For one series, the system named is AIDS virus. Nature of the series: Anti-AIDS viral activity: virus antigen in infected MT-4 cells by indirect fluorescent antibody method. The format is cell-based. Particulars: Human immunodeficiency virus 1, MT4, compound added 2 hours before virus, 10^3 to 10^4 infection units, cultured 4 days, read-out: EC50 (50% infection inhibitory concentration). The protocol:
After 0.5 ml of cell suspension prepared from MT-4 cells in 1×10^5 /ml was charged in a 24 well tray, 50 μl of a solution containing a predetermined quantity of Compound (lH) or Compound (lP) was added to the suspension. After culturing at 37° C. for 2 hours in 5% (v/v) carbon dioxide incubator, 10^3 to 10^4 infection units of AIDS virus were added and cultured for 4 days. Then, a part of the culture medium was applied onto a slide glass and immobilized with acetone, after which development of virus antigen was observed by indirect fluorescent antibody method. As the primary antibody of the fluorescent antibody method, a serum of AIDS patient was used. As its secondary antibody, FITC-labelled anti-human IgG antibody was used. Based on a proportion of the infected cells and non-infected cells where the chemical was added and where no chemical was added, a rate of infection was calculated. A concentration of the chemical and the rate of infection were plotted on semilogarithmic paper to determine 50% infection inhibitory concentration (EC50 value).

Series [1] in a line: Cytotoxicity against MT-4 cells without virus (Trypane Blue staining, viable cell count). The format is cell-based. Particulars: human, no virus added, read-out: CC50 (50% cytotoxicity). The protocol:
Furthermore, cytotoxicity of Compound (lH) and Compound (lP) against MT-4 cells was examined without adding virus. After staining with […] Blue, viable cells were counted. Based on the count of viable cells where the chemical was added and where no chemical was added, a degree of inhibition was calculated. A concentration of the chemical and the degree of inhibition were plotted on semilogarithmic paper to determine 50% cytotoxicity (CC50 value).

Converted amounts (≈) assume the structure as drawn. Bounds are passed on as bounds.

On to `Nc1nnnc2c1ncn2[C@@H]1O[C@H](CO)[C@H]1CO` [Compound (1H)], for which the EC50 in the series on AIDS virus was 0.035 µg/mL (≈ 0.139 µM). Moreover, the CC50 in series [1] was greater than 100 µg/mL.

With `Nc1nnnc2c1ncn2[C@@H]1O[C@H](COP(=O)(O)O)[C@H]1CO` [Compound (1P)], in the series with AIDS virus, the EC50 amounted to 0.14 µg/mL (≈ 0.421 µM). In addition, the CC50 in series [1] was greater than 100 µg/mL.
